For the data set the following is noted: Liquid, Closed cell (Static) method.

The structures appear in SMILES notation. ± gives the expanded uncertainty stated by the source.

The term vapor or sublimation pressure denotes the equilibrium pressure above the liquid or solid. On to `CC(F)F` [1,1-difluoroethane], for which the “vapor or sublimation pressure” value amounted to 374.8 ± 7 kPa (283.15 K); 515.2 ± 7 kPa (293.15 K); 692 ± 7.1 kPa (303.15 K); 911.1 ± 7.1 kPa (313.15 K); 1179.4 ± 7.2 kPa (323.15 K).

With `C=C(F)C(F)(F)F` [2,3,3,3-tetrafluoro-1-propene], the “vapor or sublimation pressure” value is listed as 436.5 ± 7.1 kPa (283.15 K); 591 ± 7.2 kPa (293.15 K); 780.5 ± 7.4 kPa (303.15 K); 1015.6 ± 7.6 kPa (313.15 K); 1300.7 ± 7.9 kPa (323.15 K).

Source of the values: the NIST ThermoML archive (doi:10.1016/j.fluid.2014.04.015).
